ChEMBL document CHEMBL3045561, “Feeding deterrents from Zanthoxylum schinifolium against two stored-product insects” (J Agric Food Chem, 2009)

Key:
Sitophilus zeamais [1] = assay: Feeding deterrent activity against adult Sitophilus zeamais on compound pretreated wheat flour disks assessed as food utilization rate at 1000 ppm after 3 days by flour disk bioassay (reference value: 11.09 +/-1.12%); type: functional
Sitophilus zeamais [2] = assay: Feeding deterrent activity against adult Sitophilus zeamais on compound pretreated wheat flour disks at 3 ppm after 3 days by flour disk bioassay; type: functional
Tribolium castaneum [3] = assay: Feeding deterrent activity against adult Tribolium castaneum (red flour beetle) on compound pre-treated wheat flour disks assessed as mortality at 30 ppm after 3 days by flour disk bioassay (reference value: 0%); type: functional
Sitophilus zeamais [4] = assay: Feeding deterrent activity against adult Sitophilus zeamais on compound pretreated wheat flour disks at 30 ppm after 3 days by flour disk bioassay; type: functional
Sitophilus zeamais [5] = assay: Feeding deterrent activity against adult Sitophilus zeamais on compound pretreated wheat flour disks assessed as food utilization rate at 10 ppm after 3 days by flour disk bioassay (reference value: 11.09 +/-1.12%); type: functional
Tribolium castaneum [6] = assay: Feeding deterrent activity against adult Tribolium castaneum (red flour beetle) on compound pre-treated wheat flour disks assessed as relative food consumption rate at 10 ppm after 3 days by flour disk bioassay (reference value: 143.22 +/-4.32 ug/mg/day); type: functional
Sitophilus zeamais [7] = assay: Feeding deterrent activity against adult Sitophilus zeamais on compound pretreated wheat flour disks assessed as relative food consumption rate at 300 ppm after 3 days by flour disk bioassay (reference value: 122.72 +/-4.32 ug/mg/day); type: functional
Tribolium castaneum [8] = assay: Feeding deterrent activity against adult Tribolium castaneum (red flour beetle) on compound pre-treated wheat flour disks assessed as mortality at 300 ppm after 3 days by flour disk bioassay (reference value: 0%); type: functional
Sitophilus zeamais [9] = assay: Feeding deterrent activity against adult Sitophilus zeamais on compound pretreated wheat flour disks at 1000 ppm after 3 days by flour disk bioassay; type: functional
Tribolium castaneum [10] = assay: Feeding deterrent activity against adult Tribolium castaneum (red flour beetle) on compound pre-treated wheat flour disks assessed as relative growth rate at 3 ppm after 3 days by flour disk bioassay (reference value: 29.49 +/-1.35 ug/mg/day); type: functional
Tribolium castaneum [11] = assay: Feeding deterrent activity against adult Tribolium castaneum (red flour beetle) on compound pre-treated wheat flour disks assessed as relative growth rate at 10 ppm after 3 days by flour disk bioassay (reference value: 29.49 +/-1.35 ug/mg/day); type: functional
Sitophilus zeamais [12] = assay: Feeding deterrent activity against adult Sitophilus zeamais on compound pretreated wheat flour disks assessed as relative growth rate at 1000 ppm after 3 days by flour disk bioassay (reference value: 13.61 +/-1.13 ug/mg/day); type: functional
Tribolium castaneum [13] = assay: Feeding deterrent activity against adult Tribolium castaneum (red flour beetle) on compound pre-treated wheat flour disks at 300 ppm after 3 days by flour disk bioassay; type: functional
Tribolium castaneum [14] = assay: Feeding deterrent activity against adult Tribolium castaneum (red flour beetle) on compound pre-treated wheat flour disks assessed as relative food consumption rate at 30 ppm after 3 days by flour disk bioassay (reference value: 143.22 +/-4.32 ug/mg/day); type: functional
Sitophilus zeamais [15] = assay: Feeding deterrent activity against adult Sitophilus zeamais on compound pretreated wheat flour disks assessed as relative growth rate at 10 ppm after 3 days by flour disk bioassay (reference value: 13.61 +/-1.13 ug/mg/day); type: functional
Sitophilus zeamais [16] = assay: Feeding deterrent activity against adult Sitophilus zeamais on compound pretreated wheat flour disks assessed as mortality at 1000 ppm after 3 days by flour disk bioassay (reference value: 0%); type: functional
Sitophilus zeamais [17] = assay: Feeding deterrent activity against adult Sitophilus zeamais on compound pretreated wheat flour disks assessed as relative food consumption rate at 1000 ppm after 3 days by flour disk bioassay (reference value: 122.72 +/-4.32 ug/mg/day); type: functional
Tribolium castaneum [18] = assay: Feeding deterrent activity against adult Tribolium castaneum (red flour beetle) on compound pre-treated wheat flour disks assessed as food utilization rate at 10 ppm after 3 days by flour disk bioassay (reference value: 20.59 +/-1.47%); type: functional
Sitophilus zeamais [19] = assay: Feeding deterrent activity against adult Sitophilus zeamais on compound pretreated wheat flour disks assessed as relative food consumption rate at 100 ppm after 3 days by flour disk bioassay (reference value: 122.72 +/-4.32 ug/mg/day); type: functional
Tribolium castaneum [20] = assay: Feeding deterrent activity against adult Tribolium castaneum (red flour beetle) on compound pre-treated wheat flour disks assessed as relative growth rate at 100 ppm after 3 days by flour disk bioassay (reference value: 29.49 +/-1.35 ug/mg/day); type: functional
Sitophilus zeamais [21] = assay: Feeding deterrent activity against adult Sitophilus zeamais on compound pretreated wheat flour disks assessed as relative food consumption rate at 10 ppm after 3 days by flour disk bioassay (reference value: 122.72 +/-4.32 ug/mg/day); type: functional
Tribolium castaneum [22] = assay: Feeding deterrent activity against adult Tribolium castaneum (red flour beetle) on compound pre-treated wheat flour disks assessed as relative food consumption rate at 3 ppm after 3 days by flour disk bioassay (reference value: 143.22 +/-4.32 ug/mg/day); type: functional
Tribolium castaneum [23] = assay: Feeding deterrent activity against adult Tribolium castaneum (red flour beetle) on compound pre-treated wheat flour disks assessed as food utilization rate at 3 ppm after 3 days by flour disk bioassay (reference value: 20.59 +/-1.47%); type: functional
Sitophilus zeamais [24] = assay: Feeding deterrent activity against adult Sitophilus zeamais on compound pretreated wheat flour disks at 300 ppm after 3 days by flour disk bioassay; type: functional
Sitophilus zeamais [25] = assay: Feeding deterrent activity against adult Sitophilus zeamais on compound pretreated wheat flour disks assessed as food utilization rate at 100 ppm after 3 days by flour disk bioassay (reference value: 11.09 +/-1.12%); type: functional
Sitophilus zeamais [26] = assay: Feeding deterrent activity against adult Sitophilus zeamais on compound pretreated wheat flour disks assessed as relative food consumption rate at 3 ppm after 3 days by flour disk bioassay (reference value: 122.72 +/-4.32 ug/mg/day); type: functional
Sitophilus zeamais [27] = assay: Feeding deterrent activity against adult Sitophilus zeamais on compound pretreated wheat flour disks assessed as relative growth rate at 30 ppm after 3 days by flour disk bioassay (reference value: 13.61 +/-1.13 ug/mg/day); type: functional
Tribolium castaneum [28] = assay: Feeding deterrent activity against adult Tribolium castaneum (red flour beetle) on compound pre-treated wheat flour disks assessed as food utilization rate at 30 ppm after 3 days by flour disk bioassay (reference value: 20.59 +/-1.47%); type: functional
Sitophilus zeamais [29] = assay: Feeding deterrent activity against adult Sitophilus zeamais on compound pretreated wheat flour disks assessed as food utilization rate at 3 ppm after 3 days by flour disk bioassay (reference value: 11.09 +/-1.12%); type: functional
Tribolium castaneum [30] = assay: Feeding deterrent activity against adult Tribolium castaneum (red flour beetle) on compound pre-treated wheat flour disks assessed as relative food consumption rate at 1000 ppm after 3 days by flour disk bioassay (reference value: 143.22 +/-4.32 ug/mg/day); type: functional
Sitophilus zeamais [31] = assay: Feeding deterrent activity against adult Sitophilus zeamais on compound pretreated wheat flour disks assessed as mortality at 3 ppm after 3 days by flour disk bioassay (reference value: 0%); type: functional
Tribolium castaneum [32] = assay: Feeding deterrent activity against adult Tribolium castaneum (red flour beetle) on compound pre-treated wheat flour disks at 30 ppm after 3 days by flour disk bioassay; type: functional
Tribolium castaneum [33] = assay: Feeding deterrent activity against adult Tribolium castaneum (red flour beetle) on compound pre-treated wheat flour disks after 3 days by flour disk bioassay; type: functional, organism-based
Tribolium castaneum [34] = assay: Feeding deterrent activity against adult Tribolium castaneum (red flour beetle) on compound pre-treated wheat flour disks assessed as food utilization rate at 100 ppm after 3 days by flour disk bioassay (reference value: 20.59 +/-1.47%); type: functional
Sitophilus zeamais [35] = assay: Feeding deterrent activity against adult Sitophilus zeamais on compound pretreated wheat flour disks assessed as mortality at 30 ppm after 3 days by flour disk bioassay (reference value: 0%); type: functional

Row | SMILES | ECI (Sitophilus zeamais [1]) [%] | FDI (Sitophilus zeamais [2]) [%] | mortality at 30 ppm (Tribolium castaneum [3]) [%] | FDI (Sitophilus zeamais [4]) [%] | ECI (Sitophilus zeamais [5]) [%] | Activity (Tribolium castaneum [6]) [µg/mg/day] | Activity (Sitophilus zeamais [7]) [µg/mg/day] | mortality at 300 ppm (Tribolium castaneum [8]) [%] | FDI (Sitophilus zeamais [9]) [%] | Activity (Tribolium castaneum [10]) [µg/mg/day] | Activity (Tribolium castaneum [11]) [µg/mg/day] | Activity (Sitophilus zeamais [12]) [µg/mg/day] | FDI (Tribolium castaneum [13]) [%] | Activity (Tribolium castaneum [14]) [µg/mg/day] | Activity (Sitophilus zeamais [15]) [µg/mg/day] | mortality at 1000 ppm (Sitophilus zeamais [16]) [%] | Activity (Sitophilus zeamais [17]) [µg/mg/day] | ECI (Tribolium castaneum [18]) [%] | Activity (Sitophilus zeamais [19]) [µg/mg/day] | Activity (Tribolium castaneum [20]) [µg/mg/day] | also measured
1 | CCCCCCCc1cc(=O)c2ccccc2n1C [SCHINIFOLINE] | 3.84 | 1.47 | 0 | 26.69 | 10.73 | 119.29 | 34.51 | 8 | 92.15 | 28.85 | 24.24 | 0.4 | 85.85 | 79.64 | 12.25 | 16 | 10.51 | 20.32 | 50.29 | 6.17 | Activity (Sitophilus zeamais [21]): 114.13 µg/mg/day; Activity (Tribolium castaneum [22]): 139.51 µg/mg/day; ECI (Tribolium castaneum [23]): 20.68%; FDI (Sitophilus zeamais [24]): 72.35%; ECI (Sitophilus zeamais [25]): 7.54%; Activity (Sitophilus zeamais [26]): 122.39 µg/mg/day; Activity (Sitophilus zeamais [27]): 9.06 µg/mg/day; ECI (Tribolium castaneum [28]): 16.5%; ECI (Sitophilus zeamais [29]): 11.21%; Activity (Tribolium castaneum [30]): 2.13 µg/mg/day; mortality at 3 ppm (Sitophilus zeamais [31]): 0%; FDI (Tribolium castaneum [32]): 45.07%; EC50 (Tribolium castaneum [33]): 47.81 ppm; ECI (Tribolium castaneum [34]): 11.57%; mortality at 30 ppm (Sitophilus zeamais [35]): 2%
2 | COc1ccc2c(OC)c3ccoc3nc2c1OC [SKIMMIANINE] | 4.21 | 3.53 | 0 | 26.12 | 10.67 | 124.71 | 45.13 | 6 | 82.43 | 27.92 | 24.21 | 0.77 | 68.62 | 101.27 | 12.03 | 10 | 18.31 | 19.41 | 59.65 | 8.49 | Activity (Sitophilus zeamais [21]): 112.77 µg/mg/day; Activity (Tribolium castaneum [22]): 137.89 µg/mg/day; ECI (Tribolium castaneum [23]): 20.25%; FDI (Sitophilus zeamais [24]): 60.24%; ECI (Sitophilus zeamais [25]): 8.37%; Activity (Sitophilus zeamais [26]): 120.9 µg/mg/day; Activity (Sitophilus zeamais [27]): 9.6 µg/mg/day; ECI (Tribolium castaneum [28]): 15.12%; ECI (Sitophilus zeamais [29]): 10.98%; Activity (Tribolium castaneum [30]): 15.72 µg/mg/day; mortality at 3 ppm (Sitophilus zeamais [31]): 0%; FDI (Tribolium castaneum [32]): 30.12%; EC50 (Tribolium castaneum [33]): 75.71 ppm; ECI (Tribolium castaneum [34]): 13.72%; mortality at 30 ppm (Sitophilus zeamais [35]): 0%
